# Measurements published in patent US4596710A, “Gallium chloride as a new anti-cancerous drug” (priority 1981, dated 1986).
# Key:
# [1] = test system: epidermoid carcinoma of the oesophagus; assay: 5th patient: gallium chloride treatment, tumour response; format: in vivo, human
# Text: A person . . . Michel: the diagnosis of differenciated, mature and infiltrating epidermoid carcinoma of the oesophagus was made on Sept. 3rd, 1981. This was a voluminous tumour, extending from 23 to 32 cm, from the dental arches (according to the data from the endoscopy) with an invasion of the rear face of the origin of the left principal bronchus and the carina tracheae. In the bronchoscopy of Sept. 8th, 1981, there was a necrotic tumoral bud obstructing the light of the bronchus by two-thirds.
# Gallium chloride therapy was started on Sept.
# A further bronchoscopy was made on Oct. […] The existence of a considerable sub-jacent bronchial stasis and of daily dispnoeic attacks in the evening led to treatment of this bronchial tumour by laser on Oct. 20th, 1981. […] Feeding by the oral route was stopped, as well as the gallium chloride treatment and, after parenteral feeding, a celestine prosthesis was positioned by endoscopic route on Nov. 3rd, 1981. The sequels of the positioning of the prosthesis was marked by the appearance of an infectious bronchial syndrome which led to death of the patient on Nov. 18th, 1981.
# [2] = test system: bilateral cystadenocarcinoma of the ovary; assay: 1st patient: gallium chloride treatment, tumour response; format: in vivo, human
# Method: Mrs. […] An epiploic and ganglionary invasion was discovered. Cobalt therapy was then carried out from Nov. 5th, 1979 to Feb. […] Treatment by gallium chloride started on Nov. […] An echotomograph on Dec. […] A third echotomograph was made on Jan. […] However, this was refused by the patient. On Mar.
# [3] = test system: adenocarcinoma of the colon; assay: 4th patient: gallium chloride treatment, tumour response; format: in vivo, human
# Text: A person . . . […] On Oct. […] An exploratory laparotomy was made on Nov. […] 7th, 1982.
# [4] = Clinical, renal and biological tolerance in bitches; format: in vivo, female dogs
# Method: The anti-tumoral effect of gallium chloride was firstly studied in female dogs having spontaneous malignant tumours of the breast. Gallium chloride therapy was carried out in bitches having a mammary cancer (tubulo-pillaryadenocarcinoma or mixed-type tumour); treatment started either at the stage of the primary tumour (4 bitches) or upon a recurrence after a surgical excision (10 bitches).
# In the third case, the treatment could be continued for more than six months in a very old bitch of 14 years.
# Posology of gallium chloride, per os: 7.5 mg/kg from 15.4.1981 to 14.9.1981, then 10 mg/kg.
# [5] = Acute toxicity on the mouse; format: in vivo; conditions: per os
# [6] = test system: left axillary lymphadenopathy; assay: 2nd patient: gallium chloride treatment, tumour response
# Text: A complete check-up to seek primary localisation was undertaken. In view of the negative nature of this check-up, the diagnosis of cutaneous primary tumour, developed at the expense of the cutaneous appendants (eccrine tumour) was retained.
# [7] = therapy continued up to Nov. 10th, 1981
smiles,measurement,setting,value
[Cl][Ga]([Cl])[Cl] [gallium chloride],"bronchial obstruction, bronchoscopy Oct. 13th, 1981, 5th patient","[1]; 800 mg/24 hours oral from Sept. 21st, 1981",the same bronchial obstruction
same,"death, 5th patient","[1]; infectious bronchial syndrome after prosthesis, treatment already stopped","death of the patient on Nov. 18th, 1981"
same,"clinical state, end of January 1981",[2]; 300 mg per day per os,very satisfactory
same,"superficial palpable mass, end of January 1981",[2]; 300 mg per day per os,had disappeared
same,"volume of the mass of the Douglas pouch, echotomograph Jan. 7th, 1981",[2]; 300 mg per day per os,clearly decreased
same,"mass of the Douglas pouch, echotomograph Dec. 9th, 1980","[2]; 300 mg per day per os from Nov. 1st, 1980, 3.5 cm on Oct. 27th",maintained the same diameter
same,"superficial mass / tissue of infiltration, echotomograph Dec. 9th, 1980","[2]; 300 mg per day per os, 4.4 by 3 cm before treatment",the tissue of infiltration had become a sclerous tissue
same,"death, 1st patient",[2]; after interruption of gallium chloride,"death occurred on May 6th, 1981"
same,"prevention of recurrence, 4th patient","[3]; 300 ng per day (so in the source), up to Nov. 10th, 1981",insufficient
same,"carcinoembryonic antigen rates, 4th patient, Oct. 15th, 1981",[3]; 300 mg/24 hours oral,9 ng/mL
same,"carcinoembryonic antigen rates, first 4 months, 4th patient",[3]; 500 then 300 mg/24 hours oral,normal
same,"general state, first 4 months, 4th patient",[3]; 500 then 300 mg/24 hours oral,very satisfactory
same,"exploratory laparotomy, 4th patient","[3]; Nov. 12th, 1981",an indissectable ileomesenteric block and hepatic granulations distributed like grains of rice over the whole of the two lobes of the liver
same,"carcinoembryonic antigen rates, 4th patient, Nov. 26th, 1981",[3]; [7],97 ng/mL
same,"death, 4th patient",[3]; [7],"death occured on Jan. 7th, 1982"
same,"clinical and biological tolerance, bitches overall",[4]; 5 mg/kg,excellent
same,"clinical and renal tolerance, first bitch (OUD)",[4]; 7.5 mg/kg then 10 mg/kg per os,perfect
same,"clinical and renal tolerance, second bitch (BEL)","[4]; 2.5, 5, then 7 mg/kg per os",perfect
same,dyspnoea leading to stop of treatment,"[4]; dog, in vivo, 5 mg/kg",treatment was stopped for one month due to a dyspnoea
same,"tolerance, bitches","[4]; oral, drinkable ampoules, first bitches 1 mg/kg, particularly digestive","tolerance proved to be good, particularly from the digestive point of view"
same,LD50,[5],1790 mg/kg
same,"hardness of lymphadenopathy, July 23rd, 1981",[6]; 300 mg per day oral,much harder
same,"lymphadenopathy, Jan. 6th, 1982","[6]; 600 mg and 300 mg alternately, oral",no longer perceptible
same,"diameter of lymphadenopathy, Dec. 8th, 1981",[6]; 600 mg per day oral,1 cm in diameter
same,"dorsal osseous pains, 2nd patient","[6]; Jan. 6th, 1982","dorsal osseous pains persisted, but of mechanical type, completely calmed by rest"
same,regression of the lymphadenopathy,"[6]; oral from May 20th, 1981, from end of July 1981",progressive regression of the lymphadenopathy
